Results from patent publication US4092420A, “Novel soft N-chloroamino alcohol derivatives exhibiting antibacterial activity” (INTERx Research Corporation, priority 1977, dated 1978).
Values after ≈ are worked out from the molar mass of the structure shown.

Experiments:
Experiment in all cases: Minimal inhibitory concentration (MIC), Example V
Type in all cases: cell-based
[1] = test system: C. albicans; conditions: Candida albicans
Excerpt: MINIMAL INHIBITORY CONCENTRATION OF 2-AMINO-2-METHYL-1-PROPYL […]
(§1) THE ANTIBACTERIAL SCREEN - EXAMPLE V

[2] = test system: S. pyogenes; conditions: Streptococcus pyogenes
[3] = test system: P. aeruginosa; conditions: Pseudomonas aeruginosa
Protocol: as §1
(§2) THE ANTIBACTERIAL SCREEN - EXAMPLES W - Z (Autotiter IV)
(§3) (a) Compounds. All compounds to be screened are weighed (approx. 10 mg) on the day preceding the test date. Each compound is solubilized on the day of assay in appropriate solvent and diluted automatically in the Autotiter IV with distilled water (buffer can be employed here also).
(§4) Bacteria: Staphylococcus aureas Smith (or 209), Escherichia coli AB 1932-1, 1100/B22 and Vogel, Streptococcus pyogenes C203 Salmonella typhimurium 14028, Bacillus subtilis 6051-1, Klebsiella pneumoniae 10031, Pseudomonas aeruginosa 9027, Bordetella bronchiseptica 4617 and Staphylococcus epidermidis 12228.
(§5) (c) Inocula. Prior to utilization in the Autotiter IV, all bacteria are cultured for 18-20 hr. (37° C) in tryptose phosphate broth (TP), except, S. pyogenes C203, which is cultured in Brain Heart Infusion broth plus 10% normal horse serum. Immediately prior to testing, each culture is adjusted to an optical density of 0.10 (650 nm), employing a Bausch & Lomb Spectronic 20, and diluted subsequently into double strength medium to approximately 2 × 10^5 viable organisms per ml.
(§6) 1. An automated injector system dispenses 0.05 ml of diluent (sterile H2 O or buffer) to all cups of the autotiter trays from rows 2 through 7.
(§7) 2. The loops (for sequential dilutions of the compounds are moistened by immersion into 70% ethyl alcohol. After removal of excess alcohol by blotting, the loops are moved to the first row of cups in the autotray containing 0.10 ml of the compound to be diluted and tested (usually, this initial concentration is 500 to 1000 mcg/ml, but can be varied upward or downward). The loops are lowered and sequentially transfer the diluted solutions of the compound through row 7.
(§8) Immediately after each dilution is made, each cup is automatically inoculated with 0.05 ml of the appropriate test organism. This inoculation derives from a second injector system containing the organism in double-strength medium. The total operation consists of the automatic dilution of a single compound in each of 8 rows of the Autotiter try.
(§9) After these operations, we reverse the tray and a second compound is diluted over the other one-half of the tray and inoculated, subsequently, with 8 organisms. Thus, for each Autotiter Tray, two compounds are screened against 8 different organisms at dilutions ranging from 1:2 to 1:128.
(§10) (e) Incubation. The inoculated Autotiter trays are incubated at 37° C for 18 - 20 hr. At the end of this period, each tray is examined for the presence or absence of growth (turbidity). The lowest concentration of the compound inhibiting growth is recorded as the minimal inhibitory concentration (MIC).

[4] = test system: S. aureus; conditions: Staphylococcus aureus
Protocol: as §1, §2, §3, §4, §5, §6, §7, §8, §9, §10

[5] = test system: T. mentagrophytes; conditions: Trichophyton mentagrophytes
Excerpt: (§11) MINIMAL INHIBITORY CONCENTRATION OF 2-AMINO-2-METHYL-1-PROPYL
(§12) ^a Minimal inhibitory concentration expressed in parts per million
(§13) sequence inhibited the test organism at the higher concentrations.
as §1

[6] = test system: A. niger; conditions: Aspergillus niger
Excerpt: as §11, §12, §13, §1

[7] = test system: E. coli; conditions: Escherichia coli
Excerpt: as §11, §12, §13, §1

[8] = test system: K. pneumoniae; conditions: Klebsiella pneumoniae
Protocol: as §11, §12, §13, §1
Klebsiella pneumoniae ATCC# 10031
as §2, §3, §4, §5, §6, §7, §8, §9, §10

| Compound | MIC [1] | MIC [2] | MIC [3] | MIC [4] | MIC [5] | MIC [6] | MIC [7] | MIC [8] |
| --- | --- | --- | --- | --- | --- | --- | --- | --- |
| CCCCCC(=O)OCC(C)(C)NCl [IV d, 2-N-Chloroamino-2-methyl-1-propyl hexanoate] | > 62.5 µg/mL | > 62.5 µg/mL | > 62.5 µg/mL | > 62.5 µg/mL | > 62.5 µg/mL | > 62.5 µg/mL | > 62.5 µg/mL | > 62.5 µg/mL |
| CCCCCCCC(=O)OCC(C)(C)NCl [IV e, 2-N-Chloroamino-2-methyl-1-propyl octanoate] | > 62.5 µg/mL | > 62.5 µg/mL | > 62.5 µg/mL | > 62.5 µg/mL | > 62.5 µg/mL | > 62.5 µg/mL | > 62.5 µg/mL | > 62.5 µg/mL |
| CCCCCC(=O)OCC(C)(C)N(Cl)Cl [IV h, 2-N,N-Dichloroamino-2-methyl-1-propyl hexanoate] | > 62.5 µg/mL | 62.5 µg/mL (≈ 244 µM) | > 62.5 µg/mL | > 62.5 µg/mL | 62.5 µg/mL (≈ 244 µM) | > 62.5 µg/mL | > 62.5 µg/mL | > 62.5 µg/mL |
| CCCCCCCC(=O)OCC(C)(C)N(Cl)Cl [IV i, 2-N,N-Dichloroamino-2-methyl-1-propyloctanoate] | > 62.5 µg/mL | 62.5 µg/mL (≈ 220 µM) | > 62.5 µg/mL | 62.5 µg/mL (≈ 220 µM) | 62.5 µg/mL (≈ 220 µM) | > 62.5 µg/mL | > 62.5 µg/mL | > 62.5 µg/mL |
| CCCC(=O)OCC(C)(C)NCl [IV b, 2-N-Chloroamino-2-methyl-1-propyl butyrate] | > 62.5 µg/mL | > 62.5 µg/mL | > 62.5 µg/mL | > 62.5 µg/mL | > 62.5 µg/mL | > 62.5 µg/mL | > 62.5 µg/mL | > 62.5 µg/mL |
| CCCC(=O)OCC(C)(C)N(Cl)Cl [IV f, 2-N,N-Dichloroamino-2-methyl-1-propyl butyrate] | > 62.5 µg/mL | 62.5 µg/mL (≈ 274 µM) | 62.5 µg/mL (≈ 274 µM) | > 62.5 µg/mL | > 62.5 µg/mL | > 62.5 µg/mL | > 62.5 µg/mL | > 62.5 µg/mL |
| CC(=O)OCC(C)(C)N(Cl)Cl [IV a, 2-N,N-Dichloroamino-2-methyl-1-propyl acetate] | > 62.5 µg/mL | 62.5 µg/mL | 62.5 µg/mL | > 62.5 µg/mL | 62.5 µg/mL | > 62.5 µg/mL | > 62.5 µg/mL | > 62.5 µg/mL |
